From patent US20250049036A1 (priority 2021, published 2025)

What was measured:
Phakopsora pachyrhizi = Phakopsora pachyrhizi test on soybean, preventive, greenhouse; format: in vivo; details: preventive spray on soybean, inoculated one day after treatment, read-out: control (efficacy, disease severity) compared to the untreated check
Procedure, shortened: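 Greenhouse-grown young soybean plants were sprayed with compound (2% DMSO/acetone, emulsifier in water) at the stated rate. One day later they were inoculated with 2×10^5 P. pachyrhizi inoculum and held at 22-24 °C, 80-90% relative humidity for disease development.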

Venturia Inequalis = assay: Venturia inequalis (VENTIN) spore growth inhibition in liquid medium, 96-well microtiter plate, OD 600; format: cell-based; details: spore suspension in PDB liquid medium, 18° C., 15-18 days, OD at 600, read-out: control compared to the untreated check
Procedure: Potato dextrose (PDB) liquid medium containing a VENTIN (10^5 spores/ml) spore suspension was prepared. For the inhibition assay, each test compound was solved in dimethyl sulfoxide. 100 μl of the test compound in media-solution was added to a 96-well microtiter plate, consequently, the same volume (100 μl) of spore suspension was added to the well making the final test concentrations and the treated plate was incubated at 18° C. for 15-18 days. The growth inhibition was evaluated by measuring the OD at 600. Percent inhibition was calculated with the below formula: […]

Botrytis cinerea [1] = assay: Botrytis cinerea (gray mold) mycelial radial growth on potato dextrose agar; format: cell-based; details: 168 h, 22° C., seven days, read-out: control compared to the untreated check
Procedure: The compounds were dissolved in 0.3% dimethyl sulfoxide and then added to potato dextrose agar medium just prior to dispensing it into petri dishes. 5 mL medium, with the compound in the desired concentration, was dispensed into 60 mm sterile petri-plates. After solidification, each plate was seeded with a 5 mm size mycelial disc taken from the periphery of an actively growing virulent culture plate. The plates were incubated in growth chambers at 22° C. temperature and 90% relative humidity for seven days and the radial growth was measured and compared to the one of the untreated control.

Botrytis cinerea [2] = assay: Botrytis cinerea test on tomato, preventive, greenhouse; format: in vivo; details: preventive spray on bean/chili plants (heading: tomato), inoculated one day after treatment, read-out: control (efficacy, disease severity) compared to the untreated check
Botrytis cinerea [3] = assay: Botrytis cinerea liq. (BOTRCI) spore growth inhibition in liquid medium, 96-well microtiter plate, OD 405 nm; format: cell-based; details: spore suspension in YBA liquid medium, 22° C., 5-6 days, OD at 405 nm, read-out: control compared to the untreated check
Procedure: Yeast bacterial peptone and sodium acetate (YBA) liquid medium containing a BOTRCI (10^4 spores/ml) spore suspension was prepared. For the inhibition assay, each test compound was solved in dimethyl sulfoxide. 100 μl of the test compound in media-solution was added to a 96-well microtiter plate, consequently, the same volume (100 μl) of spore suspension was added to the well making the final test concentrations and the plate was incubated at 22° C. for 5-6 days. The growth inhibition was evaluated by measuring the OD at 405 nm. Percent inhibition was calculated with the below formula:
Where T=treatment, C=control, and B=blank

Phytophthora infestans [4] = assay: whole plant or invertebrate; format: in vivo, Phytophthora infestans on tomato; details: in Solanum lycopersicum, read-out: control (efficacy, disease severity) compared to the untreated check
Pyricularia oryzae = assay: microbe, parasite or virus in culture; format: cell-based; details: 168 h, read-out: control compared to the untreated check
Phytophthora infestans [5] = assay: microbe, parasite or virus in culture; format: cell-based; details: 168 h, read-out: control compared to the untreated check
Parastagonospora nodorum = Parastagonospora nodorum (PARANO) spore growth inhibition in liquid medium, 96-well microtiter plate, OD 600; format: cell-based; details: spore suspension in PDB liquid medium, 18° C., 5-6 days, OD at 600, read-out: control compared to the untreated check
Procedure, shortened: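 Read-out is percent growth inhibition from OD at 600 after 5-6 days at 18° C. Compounds, dissolved in DMSO, were diluted in potato dextrose broth and combined in equal volume with a 10^5 spores/ml suspension of PARANO.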

Colletotrichum capsici = Colletotrichum capsici (anthracnose) mycelial radial growth on potato dextrose agar; format: cell-based; details: Colletotrichum truncatum, 168 h, 25° C., seven days, read-out: control compared to the untreated check
Procedure, shortened: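 Compounds in 0.3% DMSO were mixed into potato dextrose agar, and each plate was seeded with a 5 mm mycelial disc from an actively growing culture. Plates were incubated at 25° C and 60% relative humidity for seven days. Radial growth was compared with untreated control.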

COc1ccccc1CC(C)(C)NC(=O)c1cnc2c(ccn2C)c1 [Compound 49, N-(1-(2-methoxyphenyl)-2-methylpropan-2-yl)-1-methyl-1H-pyrrolo[2,3-b]pyridine-5-carboxamide]
≥ 70%: pest or weed control at 500 ppm (Phakopsora pachyrhizi) | inhibition of growth at 300 ppm (Venturia Inequalis)

CC(C)CC(C)(Cc1ccccc1)NC(=O)c1cnc2c(c1)c(C1CC1)cn2C (stereo not shown) [Compound 55, 3-cyclopropyl-N-(2,4-dimethyl-1-phenylpentan-2-yl)-1-methyl-1H-pyrrolo[2,3-b]pyridine-5-carboxamide]
≥ 70%: inhibition of growth at 300 ppm (Botrytis cinerea [1]) | pest or weed control at 500 ppm (Botrytis cinerea [2]) | inhibition of growth at 300 ppm (Botrytis cinerea [3])

CC(c1ccccc1Cl)C(C)(C)NC(=O)c1cnc2c(c1)c(F)cn2C (stereo not shown) [Compound 71, N-(3-(2-chlorophenyl)-2-methylbutan-2-yl)-3-fluoro-1-methyl-1H-pyrrolo[2,3-b]pyridine-5-carboxamide]
≥ 70%: pest or weed control at 500 ppm (Phytophthora infestans [4]) | inhibition of growth at 300 ppm (Pyricularia oryzae) | pest or weed control at 500 ppm (Phakopsora pachyrhizi)

COc1nc2[nH]ccc2cc1C(=O)NC(C)(Cc1ccccc1)CC(C)C (stereo not shown) [Compound 89, N-(2,4-dimethyl-1-phenylpentan-2-yl)-6-methoxy-1H-pyrrolo[2,3-b]pyridine-5-carboxamide]
≥ 70%: inhibition of growth at 300 ppm (Botrytis cinerea [1]) | pest or weed control at 500 ppm (Phakopsora pachyrhizi) | inhibition of growth at 300 ppm (Botrytis cinerea [3])

CC(C)CC(C)(Cc1ccccc1)NC(=O)c1cnc2[nH]c(=O)oc2c1 (stereo not shown) [Compound 98, N-(2,4-dimethyl-1-phenylpentan-2-yl)-2-oxo-2,3-dihydrooxazolo[4,5-b] pyridine-6-carboxamide]
≥ 70%: inhibition of growth at 300 ppm (Pyricularia oryzae) | inhibition of growth at 300 ppm (Botrytis cinerea [1]) | pest or weed control at 500 ppm (Botrytis cinerea [2]) | inhibition of growth at 300 ppm (Phytophthora infestans [5]) | inhibition of growth at 300 ppm (Botrytis cinerea [3])

Cc1cc2cc(C(=O)NC(C)(C)C(C)(C)c3ccccc3)cnc2n1C [Compound 100, N-(2,3-dimethyl-3-phenylbutan-2-yl)-1,2-dimethyl-1H-pyrrolo[2,3-b]pyridine-5-carboxamide]
≥ 70%: inhibition of growth at 300 ppm (Parastagonospora nodorum) | inhibition of growth at 300 ppm (Pyricularia oryzae) | inhibition of growth at 300 ppm (Botrytis cinerea [1]) | pest or weed control at 500 ppm (Botrytis cinerea [2]) | inhibition of growth at 300 ppm (Botrytis cinerea [3])

CC(C)(NC(=O)c1cnc2ccsc2c1)C(O)Cc1ccccc1 (stereo not shown) [Compound 105, N-(3-hydroxy-2-methyl-4-phenylbutan-2-yl)thieno[3,2-b] pyridine-6-carboxamide]
≥ 70%: inhibition of growth at 300 ppm (Parastagonospora nodorum) | inhibition of growth at 300 ppm (Botrytis cinerea [1]) | inhibition of growth at 300 ppm (Phytophthora infestans [5]) | inhibition of growth at 300 ppm (Botrytis cinerea [3])

CC(C)(C#N)NC(=O)c1cnc2ccsc2c1 [Compound 106, N-(2-cyanopropan-2-yl)thieno[3,2-b] pyridine-6-carboxamide]
≥ 70%: inhibition of growth at 300 ppm (Parastagonospora nodorum) | inhibition of growth at 300 ppm (Botrytis cinerea [1]) | pest or weed control at 500 ppm (Botrytis cinerea [2]) | pest or weed control at 500 ppm (Phakopsora pachyrhizi) | inhibition of growth at 300 ppm (Botrytis cinerea [3])

CC(C)(COC(=O)c1cccc(F)c1)NC(=O)c1cnc2c(c1)CCC2 [Compound 145, 2-(6,7-dihydro-5H-cyclopenta[b]pyridine-3-carboxamido)-2-methylpropyl 3-fluorobenzoate]
≥ 70%: pest or weed control at 500 ppm (Phytophthora infestans [4])

CC(C)(COC(=O)c1cccc(F)c1)NC(=O)c1cnc2[nH]ccc2c1 [Compound 146, 2-methyl-2-(1H-pyrrolo[2,3-b]pyridine-5-carboxamido)propyl 3-fluorobenzoate]
≥ 70%: inhibition of growth at 300 ppm (Phytophthora infestans [5]) | pest or weed control at 500 ppm (Phakopsora pachyrhizi) | inhibition of growth at 300 ppm (Venturia Inequalis)

Cc1ccccc1C(=O)OCC(C)(C)NC(=O)c1cnc2c(c1)CCC2 [Compound 149, 2-(6,7-dihydro-5H-cyclopenta[b]pyridine-3-carboxamido)-2-methylpropyl 2-methylbenzoate]
≥ 70%: inhibition of growth at 300 ppm (Parastagonospora nodorum) | inhibition of growth at 300 ppm (Botrytis cinerea [1]) | inhibition of growth at 300 ppm (Botrytis cinerea [3])

C=C(C)CC(C)(COc1ccccc1F)NC(=O)c1cnc2c(c1)CCC2 (stereo not shown) [Compound 160, N-(1-(2-fluorophenoxy)-2,4-dimethylpent-4-en-2-yl)-6,7-dihydro-5H-cyclopenta[b]pyridine-3-carboxamide]
≥ 70%: inhibition of growth at 300 ppm (Parastagonospora nodorum) | inhibition of growth at 300 ppm (Botrytis cinerea [1]) | inhibition of growth at 300 ppm (Colletotrichum capsici) | inhibition of growth at 300 ppm (Venturia Inequalis)

CC(C)(COC(=O)c1ccccc1C(F)(F)F)NC(=O)c1cnc2ccsc2c1 [Compound 161, 2-methyl-2-(thieno[3,2-b]pyridine-6-carboxamido)propyl 2-(trifluoromethyl)benzoate]
≥ 70%: inhibition of growth at 300 ppm (Pyricularia oryzae) | inhibition of growth at 300 ppm (Venturia Inequalis)

Cn1ccc2cc(C(=O)NC(C)(C)COC(=O)c3ccccc3C(F)(F)F)cnc21 [Compound 167, 2-methyl-2-(1-methyl-1H-pyrrolo[2,3-b]pyridine-5-carboxamido)propyl 2-(trifluoromethyl)benzoate]
≥ 70%: inhibition of growth at 300 ppm (Venturia Inequalis)

Cn1ccc2cc(C(=O)NC(C)(C)COCc3ccccc3F)cnc21 [Compound 187, N-(1-((2-fluorobenzyl)oxy)-2-methylpropan-2-yl)-1-methyl-1H-pyrrolo[2,3-b]pyridine-5-carboxamide]
≥ 70%: inhibition of growth at 300 ppm (Parastagonospora nodorum) | inhibition of growth at 300 ppm (Botrytis cinerea [1]) | inhibition of growth at 300 ppm (Colletotrichum capsici) | inhibition of growth at 300 ppm (Botrytis cinerea [3])

CC(C)(COCc1ccccc1F)NC(=O)c1cnc2ccsc2c1 [Compound 189]
≥ 70%: inhibition of growth at 300 ppm (Pyricularia oryzae) | inhibition of growth at 300 ppm (Botrytis cinerea [1]) | inhibition of growth at 300 ppm (Botrytis cinerea [3])

CC(C)(COCc1ccccc1F)NC(=O)c1cnc2c(c1)CCC2 [Compound 190, N-(1-((2-fluorobenzyl)oxy)-2-methylpropan-2-yl)-6,7-dihydro-5H-cyclopenta[b]pyridine-3-carboxamide]
≥ 70%: inhibition of growth at 300 ppm (Parastagonospora nodorum) | inhibition of growth at 300 ppm (Botrytis cinerea [1]) | inhibition of growth at 300 ppm (Colletotrichum capsici) | inhibition of growth at 300 ppm (Botrytis cinerea [3])

COc1nc2c(cc1C(=O)NC1(c3ccccc3)CC1)CCC2 [Compound 252, 2-methoxy-N-(1-phenylcyclopropyl)-6,7-dihydro-5H-cyclopenta[b]pyridine-3-carboxamide]
≥ 70%: inhibition of growth at 300 ppm (Parastagonospora nodorum) | inhibition of growth at 300 ppm (Botrytis cinerea [1]) | inhibition of growth at 300 ppm (Phytophthora infestans [5]) | inhibition of growth at 300 ppm (Colletotrichum capsici) | inhibition of growth at 300 ppm (Botrytis cinerea [3])

CON(C(=O)c1cc2c(nc1Cl)CCC2)C(C)Cc1ccccc1F (stereo not shown) [Compound 254, 2-chloro-N-(1-(2-fluorophenyl)propan-2-yl)-N-methoxy-6,7-dihydro-5H-cyclopenta[b]pyridine-3-carboxamide]
≥ 70%: inhibition of growth at 300 ppm (Parastagonospora nodorum) | inhibition of growth at 300 ppm (Pyricularia oryzae) | inhibition of growth at 300 ppm (Botrytis cinerea [1]) | inhibition of growth at 300 ppm (Botrytis cinerea [3])
